In this assay the test system is human panelists (perceived sweetness intensity). Briefly: Sweet flavor and sweet flavor enhancement, human panelists, scaling test. It is filed as in vivo. Details: key: 0-15 line scale; 0 = no sweetness, 15 = 15% sucrose sweetness. Conditions: for Average Sweetness: Table 28, n = 28. An excerpt:
Test samples containing experimental compounds were compared to a dose-response curve for perceived sweetness intensity of sweeteners (such as, for example, sucralose, sucrose, fructose and other sweeteners) concentrations to determine equivalent sweetness intensity.
A group of eight or more panelists tasted solutions including sweeteners at various concentrations, as well as the experimental compound both with and without added sweetener. Panelists then rated sweetness intensity of all samples on a structured horizontal line scale, anchored from 0 to 15, where 0 equals no sweetness and 15 equals equivalent sweetness to a 15% sucrose sample. Scores for sweetness intensity were averaged across panelists. Then using the average scores and/or equation of the line for the sweetener dose-response curve, equivalent sweetness concentrations were determined for the samples containing experimental compounds.
Subjects had been previously familiarized with the key attribute taste and were trained to use the 0 to 15 point line scale. Subjects refrained from eating or drinking (except water) for at least 1 hour prior to the test. Subjects ate a cracker and rinsed with water several times to clean the mouth.
Sweetener solutions are provided at a wide range of concentrations such as 100 ppm, 200 ppm, 300 ppm, 400 ppm, and 500 ppm for sucralose, or between 0% and 12% for sucrose or fructose, in order to create a dose-response curve. Samples containing experimental compound were prepared both alone and in a 100 ppm sucralose solution or a 6% sucrose or fructose solution. All samples were made up in low sodium buffer pH 7.1. In order to aid dispersion, solutions can be made up in 0.1% ethanol.
The solutions were dispensed in 20 ml volumes into 1 oz. sample cups and served to the subjects at room temperature. All samples were presented in randomized counterbalanced order to reduce response bias. Further, two sessions of testing may be used to check panel precision.
Subjects tasted each sample individually and rate sweetness intensity on the line scale prior to tasting the next sample. All samples were expectorated. Subjects may retaste the samples but can only use the volume of sample given. Subjects must rinse with water between samples. Eating an unsalted cracker between samples may be required depending on the samples tasted.
The scores for each sample were averaged across subjects and standard error was calculated. The dose-response curve was plotted graphically, and this may be used to ensure the panel is rating accurately; i.e., increasing the concentration of sucralose should correspond to increased average scores for sweetness. A 2-way ANOVA (factors being samples and panelists) and multiple comparison tests (such as Tukey's Honestly Significant Difference test) can be used to determine differences among samples and/or panelists. A 3-way ANOVA, with sessions as the third factor, can be used to determine if there is any difference in the ratings between sessions.

From patent US8633186B2, “Modulation of chemosensory receptors and ligands associated therewith” (Senomyx Inc., priority 2007, dated 2014) come the findings set out here.

On to `CCc1sc2[nH]c(=O)nc(N)c2c1C` [Example 7, 4-Amino-6-ethyl-5-methylthieno[2,3-d]pyrimidin-2(1H)-one], for which the “Average sweetness score (line scale 0 to 15)” value (“Average sweetness score” for short) (Table 2, 100 μM compound alone in low sodium buffer) is 0.1.

For `OC[C@H]1O[C@H](O[C@]2(CCl)O[C@H](CCl)[C@@H](O)[C@@H]2O)[C@H](O)[C@@H](O)[C@H]1Cl` [Sucralose, sucralose], the “Average sweetness score” value is, setting by setting: (Table 1, 100 ppm sucralose alone) 6.3; (Table 1, 200 ppm sucralose alone) 10.4; (Table 1, 300 ppm sucralose alone) 11.5; (Table 1, 400 ppm sucralose alone) 12.3; (Table 3, 100 ppm sucralose alone) 7.4; (Table 3, 200 ppm sucralose alone) 10.4. Moreover, the “Average sweetness score” value was determined as 10.5 (Table 3, 300 ppm sucralose alone); 11.2 (Table 3, 400 ppm sucralose alone); 13.0 (Table 3, 600 ppm sucralose alone); 6.3 (Table 4, 100 ppm sucralose alone); 9.5 (Table 4, 200 ppm sucralose alone); 10.3 (Table 4, 300 ppm sucralose alone). In addition, the “Average sweetness score” value worked out at 12.1 (Table 4, 400 ppm sucralose alone); 6.5 (Table 6, 100 ppm sucralose alone); 9.1 (Table 6, 200 ppm sucralose alone); 10.8 (Table 6, 300 ppm sucralose alone); 11.2 (Table 6, 400 ppm sucralose alone); 6.5 (Table 17, 100 ppm sucralose alone). Further, the “Average sweetness score” value by setting is: (Table 17, 200 ppm sucralose alone) 9.0; (Table 17, 300 ppm sucralose alone) 10.9; (Table 17, 400 ppm sucralose alone) 12.3. Besides, the “Average Sweetness” value (50 ppm sucralose alone) was determined as 4.3; the “Average Sweetness” value (100 ppm sucralose alone) amounted to 6.2; the “Average Sweetness” value (150 ppm sucralose alone) is recorded as 8.2; the “Average Sweetness” value (200 ppm sucralose alone) is 8.9; the “Average Sweetness” value (300 ppm sucralose alone) came to 10.3.
